Assay in all cases: NCI tumour cell line growth inhibition, 48 h
The subject of assay [1] is CCRF-CEM leukemia.
For assay [2], the system named is MALME-3M melanoma.
The subject of assay [3] is SNB-19 CNS.
For assay [4], the system named is KM12 colon.
Assay [5] concerns M14 melanoma.
The subject of assay [6] is HCC-2998 colon.
Assay [7] has as its system OVCAR-4 ovarian.
The test system of assay [8] is IGROV1 ovarian.
In assay [9] the test system is PC-3 prostate.
Assay [10] concerns ACHN renal.
The test system of assay [11] is MCF7 breast.
The test system of assay [12] is NCI-H522 lung.
In assay [13] the test system is HT29 colon.
Assay [14] deals with T-47D breast.

“And” between values parts separate entries of the source, which are not always exact repeats. Identical values can stand only once.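 Cultured in 96-well plates, cells were exposed to test compound for 48 hours across five concentrations. Here, GI50 denotes the concentration required for 50% inhibition of growth. TGI is the concentration that stops growth completely.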 Where a SMILES comes first, the peptide text is derived from it. [ ]: non-standard residue; d: D form. The star is where a group is joined. ξ: configuration not given here. NMeF = CN[CH](Cc1ccccc1)C(=O)O; ξNMeF = CNC(Cc1ccccc1)C(=O)O; NMeV = CN[CH](C(=O)O)C(C)C; Boc = CC(C)(C)OC(=O)*; OBn = c1ccc(CO*)cc1

For the compound `C=C(Cl)/C(=C\Cl)CCC(Cl)C(C)C` (stereo not drawn) (tested in a mixture with another compound), the TGI in assay [1] is over 100 µM; in assay [2], 29.2 µM; in assay [3], 31.5 µM; in [4], 27.6 µM; in assay [5] it was 32.7 µM; in [6], 32.7 µM. The TGI in [7] came to 31.2 µM; in assay [8] it was 28.4 µM; in assay [9], 39 µM; in assay [10] it was 30.4 µM; in [11], 26.9 µM; in [12], 16.8 µM. In assay [13], this compound returned a TGI of 36.8 µM.
As for `C=CCCCCCCCCCP(=O)(c1ccccc1)c1ccc2c(c1)OCCOCCOCCOCCO2` (stereo not drawn), the TGI was 40 µM in assay [1]; 31.9 µM in assay [2]; 25.7 µM in assay [3]; 25.4 µM in [4]; over 100 µM in assay [5]; 31.2 µM in assay [6]. In addition, the TGI was determined as 24.8 µM in assay [7]; 30.2 µM in assay [8]; 31.4 µM in assay [10]; 24.5 µM in assay [12]; 24.8 µM in [13].
As for `O=C(O)CCC(NC(=O)c1ccc(Nc2cnc3cc(C(F)(F)F)ccc3n2)cc1)C(=O)O` (stereo not drawn), the TGI in assay [1], in assay [2], in assay [3], in assay [4], in assay [6] and in [7] was over 100 µM in each case. Moreover, the TGI in [8], in [11], in assay [12] and in [13] was over 100 µM in each case.
In the case of `Cc1cc(=O)oc2c1cc1ccc3cccc4ccc2c1c34`, the TGI in [1], in assay [2], in assay [3], in assay [5], in [8] and in assay [10] was over 100 µM in each case. Besides, the TGI in [12] and in assay [13] was over 100 µM each time.
For the compound `O=C(NN1C(=O)CS(=O)(=O)C1c1ccc(Cl)c(Cl)c1)c1ccncc1` (stereo not drawn), the TGI in assay [1] was over 86.1 µM; in assay [2], over 100 µM; in assay [3] it was over 100 µM; in assay [4], over 100 µM; in assay [6] it was over 100 µM; in [7], over 100 µM. Besides, the TGI in assay [8], in assay [11], in assay [12] and in [13] was over 100 µM throughout.
As to `ICC1CCCO1` (stereo not drawn), the TGI in assay [1], in assay [2], in assay [3], in assay [4], in [5] and in assay [6] was over 100 µM in each case. For the same compound, the TGI in [7], in assay [8], in assay [10] and in assay [13] was over 100 µM each time.
With `CC(=O)[O-].CC(=O)[O-].O=C(N/N=C/c1cc(Cl)cc(Cl)c1[OH2+])c1ccncc1.[Mn+2]`, the TGI in assay [1] was 2.15 µM; in assay [2], 18 µM; in [3], 36.1 µM; in assay [4] it was 23.8 µM; in [5], 13.6 µM; in [6] it was 17 µM. The TGI turned out to be 10.7 µM in assay [8], 13.8 µM in assay [10], 14.8 µM in assay [12] and 31.6 µM in assay [13].
As for `Nc1nc(SCC(=O)c2ccccc2)c2[nH]cnc2n1`, the TGI in assay [1], in [2], in assay [3], in [4], in assay [5] and in assay [6] was over 100 µM each time. In addition, the TGI in assay [7], in [8], in assay [10], in assay [12] and in assay [13] was over 100 µM in each case.
Turning to `Cc1cc(O)c2c(c1)C(=O)c1c(c(O)cc(O)c1-c1c(O)cc(O)c3c1C(=O)c1cc(C)cc(O)c1C3=O)C2=O`, the TGI is 48.3 µM in assay [1]; 65.2 µM in assay [2]; 12.4 µM in assay [3]; 64.2 µM in assay [4]; 35.2 µM in assay [6]; 26.9 µM in assay [7]. Further, the TGI in assay [8] turned out to be 52.6 µM; in assay [11] it was 48.8 µM; in [12] it was 59 µM; in [13] it was 45 µM.
Turning to `CCN(CC)C(=O)CCn1cc(F)c(=O)[nH]c1=O`, the TGI in assay [1], in assay [2], in assay [3], in assay [4], in assay [5] and in assay [7] was over 100 µM in each case. Further, the TGI in [8], in assay [10], in [12] and in assay [13] was over 100 µM throughout.
Consider `CC(C)C(NC(=O)OC(C)(C)C)C(=O)N(C)C(Cc1ccccc1)C(=O)N(C)C(C(=O)OCc1ccccc1)C(C)C` (stereo not drawn) (Boc-Val-[NMeF]-[NMeV]-OBn; configuration not given here), for which the GI50 in assay [1] is 17.8 µM and 39.1 µM; in [3], > 100 µM and 32.8 µM; in assay [4], 38.2 µM and 82.9 µM; in [10], > 100 µM and 41 µM. The TGI in assay [1], in assay [2], in [3], in [4], in [5] and in assay [6] was over 100 µM in each case. The TGI in [8] was over 100 µM; in assay [10], over 100 µM; in assay [12] it was 29.7 µM and 69 µM; in assay [13] it was 32.3 µM and > 100 µM.
Regarding `C/C(O)=C(\C=N\C(=S)N=Nc1c(O)[nH]c2ccccc12)C(=O)Nc1ccccc1C`, the TGI in [3], in assay [4], in assay [5], in assay [6], in assay [14] and in assay [7] was over 100 µM in each case. In addition, the TGI in assay [8], in assay [10] and in assay [13] was over 100 µM throughout.
With `COc1cccc(NC(=O)CSc2nnc(Cc3ccccc3)o2)c1`, the TGI in assay [1], in assay [2], in assay [3], in assay [4], in assay [5] and in [6] was over 100 µM each time. Further, the TGI in [7] is over 100 µM; in assay [8], over 100 µM; in assay [10], 63.6 µM; in assay [12], over 100 µM; in assay [13] it was over 100 µM.
Consider `CC(C)[C@@H](C(=O)N(C)[C@H](C(=O)N1CCC[C@H]1C(=O)OCc1ccccc1)C(C)C)N(C)C(=O)C(Cc1ccccc1)N(C)C(=O)[C@H](NC(=O)OC(C)(C)C)C(C)C` (stereo partly drawn) (Boc-[dV][ξNMeF][NMeV][NMeV]P-OBn), for which the TGI is over 31.6 µM in assay [1]; over 100 µM in [2]; over 31.6 µM in assay [3]; over 100 µM in [5]; over 100 µM in assay [7]; over 31.6 µM in [8]. Besides, the TGI in [10] is over 100 µM; in assay [12] it was over 100 µM; in [13] it was over 31.6 µM.
Regarding `O=C(OCc1ccccc1)C(Cc1ccc(OCc2ccccc2)cn1)NC(=O)C(F)(F)F` (stereo not drawn), the TGI in [2], in assay [3], in assay [4], in assay [6], in [7] and in assay [8] was over 100 µM throughout. For the same compound, the TGI in [9], in assay [10], in assay [12] and in assay [13] was over 100 µM throughout.
Consider `C=C1CC(OC)(C(OC)C(=O)N[C@H]2OCO[C@H]3C2O[C@H](C[C@@H](COC)OC)C(C)(C)C3OC)O[C@H](C)[C@@H]1C` (stereo partly drawn), for which the TGI in assay [1] was 1.43 µM; in assay [3] it was 3.22 µM; in assay [4] it was over 47 µM; in assay [7] it was 4.25 µM; in assay [8] it was 12.3 µM; in assay [11] it was over 47 µM. For the same compound, in [13], the TGI came to 5.49 µM.
`Cc1ccc(Nc2cccc3c2C(=O)c2cccc(Nc4ccc(C)cc4S(=O)(=O)O)c2C3=O)c(S(=O)(=O)O)c1`: the TGI in [1], in assay [2], in assay [3], in assay [4], in [5] and in assay [6] was over 100 µM each time. Further, the TGI in [7], in assay [8], in assay [10] and in [12] was over 100 µM in each case.
On to `CNC(=O)C(C)Oc1ccc(OCC2CCCCC2)cc1` (stereo not drawn), for which the TGI in assay [1], in assay [2], in assay [3], in assay [4], in [5] and in [7] was over 100 µM in each case. Further, the TGI in assay [8], in [10], in assay [12] and in assay [13] was over 100 µM in each case.

(Values after PubChem BioAssay (NCI).)
